Series [1] deals with FLT3-ITD-F691L-D835Y Ba/F3 cells. As to the kind of experiment: In vivo life-span (survival) in mouse AML model. The following applies: for extension of lifespan compared with vehicle control: oral; for Median survival: qd. As to the method: (§1) Nude mice (5-6 weeks old)(Orient) were purchased and used after a week. Mice were anesthetized following IACUC approved animal protocol. FLT3-ITD F691L-D835Y, luc+ Ba/F3 cell (Established in-house) suspension (in 0.1 mL RPMI1640 (Welgene) of 1.0×10^6 cells) was injected into tail vein intravenously using a 29-G needle, and an tail mark was added to each animal for identification. After 6 days, the luminescence intensity was measured using IVIS (Perkin Elmer) to calculate the ROI intensity.
Each compound solution was prepared freshly just before administration. Compounds were administered orally using a mouse sondae once a day, 0.1 mL per mouse. Mice were humanely euthanized if animals experience 20% body weight loss.

Series [2] in a line: Body weight change during bioluminescent in vivo efficacy study. More on the design: species or system mouse. The following applies: po, qd. As to the method: (§2) Each compound was dissolved in NMP at 20× final concentration and diluted to 1× with the remaining vehicle components (vehicle: 5% NMP, 15% solutol (Sigma-aldrich), 30% PEG400 (Sigma-aldrich), 50% 0.05M citric acid (Sigma-aldrich)). Each compound solution was prepared freshly just before administration. Compounds were administered orally using a mouse sondae once a day, 0.1 mL per mouse. Mice were humanely euthanized if animals experience 20% body weight loss.
(§3) D-Luciferin (Promega) was dissolved in DPBS (Welgene) (without Ca2+ and Mg2+) at 15 mg/mL, and the stock solution was prepared after filtration using 0.22 μm syringe filters (BD). Luciferin solution (150 mg/kg in DPBS) was injected intraperitoneally into each mouse (200 μL/mouse). After 5 min, mice were anesthetized for 5 min using isoflurane (JW Pharma). Luminescence signal was read using IVIS200 (exposure time: auto, binning: 8, F/stop: 1). Signal intensity and body weights were measured every 3 days to monitor the ROI intensity and treatment-induced body weight loss. […] Data was analyzed using Living Image software (Caliper, PerkinElmer).
(§4) Statistical analysis of luminescence signal intensity, mouse body weight, and spleen/body weight ratio were evaluated using two-way ANOVA. Differences were considered statistically significant at p<0.005.

The subject of series [3] is FLT3-ITD-F691L-D835Y Ba/F3 cells. As to the kind of experiment: Spleen size in mouse AML model. The following applies: 15, 30 mg/kg; after drug administration for 9 days. In kind it is in vivo. As to the method:
as §1, with “intensity. Once ROI intensity reaches the study-desired minimum intensity (usually 2×106), mice were randomized into different treatment groups based on signal intensity.” for “intensity.”
Each compound was dissolved in NMP at 20× final concentration and diluted to 1× with the remaining vehicle components (vehicle: 5% NMP, 15% solutol (Sigma-aldrich), 30% PEG400 (Sigma-aldrich), 50% 0.05M citric acid (Sigma-aldrich)). Each compound solution was prepared freshly just before administration. […]
Mice were then euthanized by cervical dislocation while they were still under isoflurane anesthesia. The spleens from the mice were isolated and weighted, and spleen weight index was calculated as organ weight (mg) per gram of mouse body weight. […]
Statistical analysis of luminescence signal intensity, mouse body weight, and spleen/body weight ratio were evaluated using two-way ANOVA. […]

Series [4] has the same test system. Briefly: In vivo bioluminescent efficacy study in mouse AML model. Particulars: for T/C, reduction of luminescence: compared with AC220-treated and vehicle control mice. As to the method: as §1, with “intensity. Once ROI intensity reaches the study-desired minimum intensity (usually 2×106), mice were randomized into different treatment groups based on signal intensity.” for “intensity.”
as §2, §3, §4

The next series deals with MLK1 (Homo sapiens, UniProt P80192). Briefly: Kinase inhibitory activity, full kinase panel. Particulars: single concentration of 1 μM, read-out: %Inhibitory ability. In kind it is biochemical. As to the method:
(§5) In order to measure inhibitory activity (% inhibitory ability) against a protein kinase with respect to the compound of the present invention, a biochemical assay was performed in a full kinase panel shown in the following Table 1. As an experimental compound, the (S)-5-((3-fluorophenyl)ethynyl)-N-(piperidin-3-yl)-3-ureidothiophene-2-carboxamide synthesized in Example 24 was used.

In the next series the target is LCK (Homo sapiens, UniProt P06239). As to the kind of experiment: Kinase inhibitory activity, full kinase panel. In kind it is biochemical. Particulars: single concentration of 1 μM, read-out: %Inhibitory ability. As to the method: as §5
The target of the next series is ANKK1 (Homo sapiens, UniProt Q8NFD2). As to the kind of experiment: Kinase inhibitory activity, full kinase panel. In kind it is biochemical. Particulars: single concentration of 1 μM, read-out: %Inhibitory ability. As to the method:
as §5

The next series deals with IRAK1 (Homo sapiens, UniProt P51617). Briefly: Kinase inhibitory activity, full kinase panel. In kind it is biochemical. The following applies: single concentration of 1 μM, read-out: %Inhibitory ability. As to the method: as §5
The target in the next series is DRAK2 (Homo sapiens, UniProt O94768). Briefly: Kinase inhibitory activity, full kinase panel. In kind it is biochemical. Particulars: single concentration of 1 μM, read-out: %Inhibitory ability. As to the method:
as §5

A further series addresses BUB1 (Homo sapiens, UniProt O43683). Briefly: Kinase inhibitory activity, full kinase panel. In kind it is biochemical. The following applies: single concentration of 1 μM, read-out: %Inhibitory ability. As to the method:
as §5

For the next series, the target named is PHKG2 (Homo sapiens, UniProt P15735). Briefly: Kinase inhibitory activity, full kinase panel. In kind it is biochemical. Particulars: single concentration of 1 μM, read-out: %Inhibitory ability. As to the method: as §5
Sequence of PHKG2 (P15735 whole entry): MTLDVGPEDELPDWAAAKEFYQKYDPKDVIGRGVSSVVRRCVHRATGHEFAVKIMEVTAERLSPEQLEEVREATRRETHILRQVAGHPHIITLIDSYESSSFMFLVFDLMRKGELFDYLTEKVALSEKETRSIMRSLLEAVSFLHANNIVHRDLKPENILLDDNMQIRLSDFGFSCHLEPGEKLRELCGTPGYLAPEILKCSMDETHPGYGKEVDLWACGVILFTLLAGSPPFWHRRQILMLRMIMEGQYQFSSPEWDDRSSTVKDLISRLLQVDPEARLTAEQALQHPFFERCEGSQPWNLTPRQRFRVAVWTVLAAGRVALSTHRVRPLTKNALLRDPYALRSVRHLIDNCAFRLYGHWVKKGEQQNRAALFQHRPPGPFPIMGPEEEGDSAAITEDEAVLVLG
A further series concerns the target PHKG1 (Homo sapiens, UniProt Q16816). As to the kind of experiment: Kinase inhibitory activity, full kinase panel. In kind it is biochemical. Particulars: single concentration of 1 μM, read-out: %Inhibitory ability. As to the method:
as §5

For the next series, the target named is TAK1 (Homo sapiens, UniProt O43318). Briefly: Kinase inhibitory activity, full kinase panel. In kind it is biochemical. Particulars: single concentration of 1 μM, read-out: %Inhibitory ability. As to the method:
as §5

The next series concerns the target FLT4 (Homo sapiens, UniProt P35916). Briefly: Kinase inhibitory activity, full kinase panel. In kind it is biochemical. The following applies: single concentration of 1 μM, read-out: %Inhibitory ability. As to the method: as §5
For another series, the target named is MAP4K5 (Homo sapiens, UniProt Q9Y4K4). As to the kind of experiment: Kinase inhibitory activity, full kinase panel. In kind it is biochemical. The following applies: single concentration of 1 μM, read-out: %Inhibitory ability. As to the method:
as §5

In a further series the target is SIK (Homo sapiens, UniProt P57059). As to the kind of experiment: Kinase inhibitory activity, full kinase panel. In kind it is biochemical. Particulars: single concentration of 1 μM, read-out: %Inhibitory ability. As to the method:
as §5

A further series concerns the target CSK (Homo sapiens, UniProt P41240). Briefly: Kinase inhibitory activity, full kinase panel. In kind it is biochemical. The following applies: single concentration of 1 μM, read-out: %Inhibitory ability. As to the method: as §5
The next series deals with HPK1 (Homo sapiens, UniProt Q92918). Briefly: Kinase inhibitory activity, full kinase panel. In kind it is biochemical. Particulars: single concentration of 1 μM, read-out: %Inhibitory ability. As to the method:
as §5

The next series addresses CAMK1 (Homo sapiens, UniProt Q14012). As to the kind of experiment: Kinase inhibitory activity, full kinase panel. In kind it is biochemical. The following applies: single concentration of 1 μM, read-out: %Inhibitory ability. As to the method:
as §5

The target of another series is IRAK4 (Homo sapiens, UniProt Q9NWZ3). Briefly: Kinase inhibitory activity, full kinase panel. In kind it is biochemical. Particulars: single concentration of 1 μM, read-out: %Inhibitory ability. As to the method: as §5
A further series concerns the target RIOK1 (Homo sapiens, UniProt Q9BRS2). As to the kind of experiment: Kinase inhibitory activity, full kinase panel. In kind it is biochemical. Particulars: single concentration of 1 μM, read-out: %Inhibitory ability. As to the method: as §5
A further series concerns the target TGFBR2 (Homo sapiens, UniProt P37173). Briefly: Kinase inhibitory activity, full kinase panel. In kind it is biochemical. The following applies: single concentration of 1 μM, read-out: %Inhibitory ability. As to the method:
as §5

The target in a further series is FYN (Homo sapiens, UniProt P06241). Briefly: Kinase inhibitory activity, full kinase panel. In kind it is biochemical. The following applies: single concentration of 1 μM, read-out: %Inhibitory ability. As to the method: as §5
Sequence of FYN (P06241 whole entry, species assumed): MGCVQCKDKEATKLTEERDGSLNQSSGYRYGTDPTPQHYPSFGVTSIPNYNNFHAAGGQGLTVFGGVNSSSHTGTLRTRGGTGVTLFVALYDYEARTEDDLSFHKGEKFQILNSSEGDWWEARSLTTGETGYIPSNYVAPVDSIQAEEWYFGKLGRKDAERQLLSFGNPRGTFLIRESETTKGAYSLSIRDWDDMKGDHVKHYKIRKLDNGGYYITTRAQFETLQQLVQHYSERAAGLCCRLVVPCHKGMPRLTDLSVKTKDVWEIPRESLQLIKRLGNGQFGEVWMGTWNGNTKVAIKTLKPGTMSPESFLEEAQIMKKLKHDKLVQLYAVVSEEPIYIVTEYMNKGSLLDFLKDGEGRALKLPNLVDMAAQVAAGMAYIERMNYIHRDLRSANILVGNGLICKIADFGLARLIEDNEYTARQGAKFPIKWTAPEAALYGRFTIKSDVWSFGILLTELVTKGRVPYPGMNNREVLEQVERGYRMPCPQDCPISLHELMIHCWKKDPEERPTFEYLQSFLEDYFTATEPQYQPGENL
Another series concerns the target BLK (Homo sapiens, UniProt P51451). As to the kind of experiment: Kinase inhibitory activity, full kinase panel. In kind it is biochemical. The following applies: single concentration of 1 μM, read-out: %Inhibitory ability. As to the method: as §5

Sequence of SIK (P57059 whole entry): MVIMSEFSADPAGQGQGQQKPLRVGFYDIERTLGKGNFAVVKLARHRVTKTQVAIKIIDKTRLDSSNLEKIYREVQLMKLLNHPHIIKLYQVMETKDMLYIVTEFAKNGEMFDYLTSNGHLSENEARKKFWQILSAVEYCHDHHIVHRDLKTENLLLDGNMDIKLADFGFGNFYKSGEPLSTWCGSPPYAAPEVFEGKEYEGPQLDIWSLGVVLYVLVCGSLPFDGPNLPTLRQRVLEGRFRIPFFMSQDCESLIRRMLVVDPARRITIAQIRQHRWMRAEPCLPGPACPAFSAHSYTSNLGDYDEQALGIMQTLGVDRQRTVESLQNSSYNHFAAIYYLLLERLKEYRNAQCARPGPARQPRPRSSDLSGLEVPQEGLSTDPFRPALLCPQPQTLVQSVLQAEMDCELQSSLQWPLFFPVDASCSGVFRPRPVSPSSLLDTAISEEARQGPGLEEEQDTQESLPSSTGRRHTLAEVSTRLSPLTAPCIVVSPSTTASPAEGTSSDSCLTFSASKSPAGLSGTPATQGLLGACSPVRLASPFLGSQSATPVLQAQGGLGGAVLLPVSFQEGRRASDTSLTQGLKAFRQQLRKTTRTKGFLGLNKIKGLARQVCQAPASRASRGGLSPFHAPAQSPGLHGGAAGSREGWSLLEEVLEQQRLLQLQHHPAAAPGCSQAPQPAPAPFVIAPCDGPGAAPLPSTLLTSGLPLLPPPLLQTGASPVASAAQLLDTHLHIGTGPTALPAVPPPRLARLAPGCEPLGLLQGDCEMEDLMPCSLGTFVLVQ
Sequence of CSK (P41240 whole entry, species assumed): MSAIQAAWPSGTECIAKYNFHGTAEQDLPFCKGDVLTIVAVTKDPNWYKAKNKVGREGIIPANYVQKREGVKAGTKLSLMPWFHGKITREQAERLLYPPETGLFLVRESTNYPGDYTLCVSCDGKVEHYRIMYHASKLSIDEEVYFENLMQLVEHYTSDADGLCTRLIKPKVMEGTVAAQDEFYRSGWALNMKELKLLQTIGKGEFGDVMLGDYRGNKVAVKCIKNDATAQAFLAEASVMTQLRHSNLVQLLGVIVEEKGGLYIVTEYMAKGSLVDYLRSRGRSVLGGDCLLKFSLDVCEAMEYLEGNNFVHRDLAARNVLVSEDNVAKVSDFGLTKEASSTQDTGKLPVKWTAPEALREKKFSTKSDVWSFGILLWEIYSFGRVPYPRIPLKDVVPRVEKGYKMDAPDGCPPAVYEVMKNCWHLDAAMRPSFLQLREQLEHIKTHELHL
Sequence of ANKK1 (Q8NFD2 whole entry, species assumed): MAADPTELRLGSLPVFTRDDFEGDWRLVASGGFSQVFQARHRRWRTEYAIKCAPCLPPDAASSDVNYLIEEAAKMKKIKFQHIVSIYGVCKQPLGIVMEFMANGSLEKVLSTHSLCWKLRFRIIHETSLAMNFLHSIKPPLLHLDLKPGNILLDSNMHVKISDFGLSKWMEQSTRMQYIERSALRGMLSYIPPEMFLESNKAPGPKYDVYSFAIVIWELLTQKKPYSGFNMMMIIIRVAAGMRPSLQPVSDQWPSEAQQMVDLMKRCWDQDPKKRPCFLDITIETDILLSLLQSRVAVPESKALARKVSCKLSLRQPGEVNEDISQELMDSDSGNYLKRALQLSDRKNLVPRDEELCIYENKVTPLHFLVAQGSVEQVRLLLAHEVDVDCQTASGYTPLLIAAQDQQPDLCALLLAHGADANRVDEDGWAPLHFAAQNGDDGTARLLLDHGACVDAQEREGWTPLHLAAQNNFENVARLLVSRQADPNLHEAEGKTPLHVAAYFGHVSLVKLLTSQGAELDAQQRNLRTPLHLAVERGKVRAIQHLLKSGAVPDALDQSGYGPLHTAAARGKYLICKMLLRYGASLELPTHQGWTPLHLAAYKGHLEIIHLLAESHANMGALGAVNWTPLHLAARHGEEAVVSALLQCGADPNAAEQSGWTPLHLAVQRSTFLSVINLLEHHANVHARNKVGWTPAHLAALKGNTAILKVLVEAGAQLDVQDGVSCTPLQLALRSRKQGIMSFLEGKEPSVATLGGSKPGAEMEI
Sequence of BLK (P51451 whole entry, species assumed): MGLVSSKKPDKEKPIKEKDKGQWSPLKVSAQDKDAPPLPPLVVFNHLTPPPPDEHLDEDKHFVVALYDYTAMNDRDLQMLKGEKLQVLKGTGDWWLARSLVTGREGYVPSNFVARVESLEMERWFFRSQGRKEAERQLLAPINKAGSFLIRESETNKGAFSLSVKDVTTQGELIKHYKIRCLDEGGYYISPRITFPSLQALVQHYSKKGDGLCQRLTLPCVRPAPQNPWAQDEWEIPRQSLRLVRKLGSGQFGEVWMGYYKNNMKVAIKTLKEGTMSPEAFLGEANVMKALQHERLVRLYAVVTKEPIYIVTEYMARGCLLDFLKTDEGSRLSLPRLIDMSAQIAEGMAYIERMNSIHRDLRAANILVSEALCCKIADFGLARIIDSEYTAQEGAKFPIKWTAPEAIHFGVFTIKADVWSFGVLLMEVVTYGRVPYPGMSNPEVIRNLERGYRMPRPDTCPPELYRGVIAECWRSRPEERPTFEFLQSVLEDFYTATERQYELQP
Sequence of HPK1 (Q92918 whole entry, species assumed): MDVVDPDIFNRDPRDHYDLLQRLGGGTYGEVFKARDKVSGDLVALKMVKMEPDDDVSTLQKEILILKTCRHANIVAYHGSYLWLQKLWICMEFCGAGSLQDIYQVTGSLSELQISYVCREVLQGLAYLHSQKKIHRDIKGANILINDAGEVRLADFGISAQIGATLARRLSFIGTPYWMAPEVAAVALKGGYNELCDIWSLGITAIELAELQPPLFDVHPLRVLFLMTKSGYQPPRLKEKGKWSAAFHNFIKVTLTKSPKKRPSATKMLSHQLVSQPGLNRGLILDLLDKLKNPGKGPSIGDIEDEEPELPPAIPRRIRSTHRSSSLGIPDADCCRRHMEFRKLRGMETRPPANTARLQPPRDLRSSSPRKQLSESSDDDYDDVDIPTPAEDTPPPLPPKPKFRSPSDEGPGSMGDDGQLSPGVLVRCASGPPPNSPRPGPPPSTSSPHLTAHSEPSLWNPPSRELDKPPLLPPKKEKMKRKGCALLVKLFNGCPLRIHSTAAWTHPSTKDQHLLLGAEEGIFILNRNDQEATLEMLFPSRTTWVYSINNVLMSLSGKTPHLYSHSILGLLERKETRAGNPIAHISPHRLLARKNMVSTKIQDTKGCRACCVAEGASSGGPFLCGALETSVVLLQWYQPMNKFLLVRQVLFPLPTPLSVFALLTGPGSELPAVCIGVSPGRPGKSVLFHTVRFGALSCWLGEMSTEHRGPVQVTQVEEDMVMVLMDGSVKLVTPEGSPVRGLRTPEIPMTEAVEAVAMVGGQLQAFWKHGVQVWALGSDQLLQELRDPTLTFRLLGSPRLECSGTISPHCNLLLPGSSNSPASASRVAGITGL
Sequence of TGFBR2 (P37173 23-567, species assumed): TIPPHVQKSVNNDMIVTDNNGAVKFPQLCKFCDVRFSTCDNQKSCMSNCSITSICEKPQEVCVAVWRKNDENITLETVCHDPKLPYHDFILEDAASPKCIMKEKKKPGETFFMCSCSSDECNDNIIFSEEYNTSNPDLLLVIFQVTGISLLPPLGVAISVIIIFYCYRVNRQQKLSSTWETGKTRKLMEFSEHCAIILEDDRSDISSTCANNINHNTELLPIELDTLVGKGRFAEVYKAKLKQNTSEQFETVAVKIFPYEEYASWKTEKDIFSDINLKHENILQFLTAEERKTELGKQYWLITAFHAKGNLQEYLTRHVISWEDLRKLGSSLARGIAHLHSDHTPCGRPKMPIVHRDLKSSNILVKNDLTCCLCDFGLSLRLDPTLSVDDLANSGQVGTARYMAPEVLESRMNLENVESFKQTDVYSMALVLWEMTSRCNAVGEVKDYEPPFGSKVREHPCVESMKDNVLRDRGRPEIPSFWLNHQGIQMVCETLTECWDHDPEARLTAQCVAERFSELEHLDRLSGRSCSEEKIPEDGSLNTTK

Consider `NC(=O)Nc1cc(C#Cc2cccc(F)c2)sc1C(=O)N[C@H]1CCCNC1` [Example 22, (S)-5-((3-fluorophenyl)ethynyl)-N-(piperidin-3-yl)-3-ureidothiophene-2-carboxamide], for which the “extension of lifespan compared with vehicle control” value is reported as 26 days in [1] (15 mpk) and 29 days in series [1] (30 mpk). In addition, the Median survival in series [1] (15 mpk, po) was determined as 23; in series [1] (30 mpk, po) it was 27. Moreover, the “life-span of the mouse model (in words)” value in series [1] (po, qd, 15, 30 mg/kg) is listed as “extended significantly the life-span”. Moreover, in series [2], the mouse body weight result was “did not alter the mouse body weight”. Also, the “spleen size (spleen weight over mouse body weight)” value in series [3] is reported as “reduced to the disease free spleen size”. The “T/C, reduction of luminescence” value in [4] (15 mg/kg orally once per day) was determined as 84.2%; in series [4] (30 mg/kg orally once per day), 88.7%. The “tumor inhibition at low dosages (luminescence)” value in [4] (2, 4, 7, 10 mg/kg, po, qd) was “dose-dependent tumor inhibition in vivo from a dosage of 2 mg/kg”.
`Cc1ccc(C#Cc2cc(NC(N)=O)c(C(=O)N[C@H]3CCCNC3)s2)cc1` [Example 24, (S)—N-(piperidin-3-yl)-5-(p-tolylethynyl)-3-ureidothiophene-2-carboxamide]: the inhibition at 1 µM worked out at 95.9% at MLK1; 72% on LCK; 93.3% on ANKK1; 90.7% at IRAK1; 96% at DRAK2; 97.4% at BUB1. In addition, the inhibition at 1 µM stood at 89% at PHKG2; 98.4% at PHKG1; 91.5% at TAK1; 94.5% at FLT4; 85% on MAP4K5; 80% on SIK. Further, the inhibition at 1 µM on CSK stood at 92.1%; at HPK1, 78%; on CAMK1 it was 67%; at IRAK4, 99.8%; at RIOK1, 77%; on TGFBR2, 72%. The inhibition at 1 µM was found to be 91.5% at FYN and 93.2% on BLK.
